Where “and” joins values, the source holds several entries; their conditions need not be identical. Identical values can stand only once. Inconclusive results and toxic doses are left out. The calls were made as follows: active = survival T/C of 150% or more; inactive = T/C below 125% in these data.
Test system: P388 leukemia ip, CD2F1 mice, survival T/C
Test: NCI In Vivo Anticancer Drug Screen. Data for tumor model P388 Leukemia (intraperitoneal) in CD2F1 (CDF1) mice
Conditions: endpoint: median survival time, higher = longer survival
How it was run: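 Mice carrying the transplanted tumor received test compound or vehicle. Survival was recorded in each group, and the value is the treated-group measurement divided by that of the vehicle-treated control group.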

[1] = dose: 50.0 mg/kg/injection, schedule: Q01DX005 (ip), vehicle: saline with Tween-80
[2] = dose: 100.0 mg/kg/injection, schedule: Q01DX005 (ip), vehicle: saline with Tween-80
[3] = dose: 200.0 mg/kg/injection, schedule: Q01DX005 (ip), vehicle: saline with Tween-80
[4] = dose: 50.0 mg/kg/injection, schedule: Q01DX005 (ip), vehicle: Klucel (hydroxypropylcellulose) (HPC)
[5] = dose: 100.0 mg/kg/injection, schedule: Q01DX005 (ip), vehicle: Klucel (hydroxypropylcellulose) (HPC)
[6] = dose: 200.0 mg/kg/injection, schedule: Q01DX005 (ip), vehicle: Klucel (hydroxypropylcellulose) (HPC)
[7] = dose: 25.0 mg/kg/injection, schedule: Q01DX001 (ip), vehicle: saline with Tween-80
[8] = dose: 50.0 mg/kg/injection, schedule: Q01DX001 (ip), vehicle: saline with Tween-80
[9] = dose: 60.0 mg/kg/injection, schedule: Q01DX005 (ip), vehicle: saline with Tween-80
[10] = dose: 12.5 mg/kg/injection, schedule: Q01DX009 (ip), vehicle: saline with Tween-80
[11] = dose: 25.0 mg/kg/injection, schedule: Q01DX009 (ip), vehicle: saline with Tween-80
[12] = dose: 50.0 mg/kg/injection, schedule: Q01DX009 (ip), vehicle: saline with Tween-80
[13] = dose: 100.0 mg/kg/injection, schedule: Q01DX009 (ip), vehicle: saline with Tween-80
[14] = dose: 200.0 mg/kg/injection, schedule: Q01DX009 (ip), vehicle: saline with Tween-80
[15] = dose: 50.0 mg/kg/injection, schedule: Q04DX003 (ip), vehicle: saline with Tween-80

Measured: T/C

N#CCC[P+](CCC#N)(CCC#N)CCN1C(=O)c2ccccc2C1=O
inactive: dose: 0.78 mg/kg/injection, schedule: Q01DX009 (ip), vehicle: water 96 % of control | dose: 1.56 mg/kg/injection, schedule: Q01DX009 (ip), vehicle: water 89 % of control | dose: 3.13 mg/kg/injection, schedule: Q01DX009 (ip), vehicle: water 100 % of control | dose: 6.25 mg/kg/injection, schedule: Q01DX009 (ip), vehicle: water 115 % of control | dose: 12.5 mg/kg/injection, schedule: Q01DX009 (ip), vehicle: water 108 % of control | dose: 25.0 mg/kg/injection, schedule: Q01DX009 (ip), vehicle: water 102 % of control and 117 % of control | dose: 50.0 mg/kg/injection, schedule: Q01DX009 (ip), vehicle: water 100 % of control | dose: 100.0 mg/kg/injection, schedule: Q01DX009 (ip), vehicle: water 100 % of control | dose: 200.0 mg/kg/injection, schedule: Q01DX009 (ip), vehicle: water 101 % of control

CC(=O)N1c2ccccc2Oc2ccc3ccccc3c21
inactive: [1] 104 % of control | [2] 100 % of control | [3] 97 % of control

O=C(NNC(=S)NC1OCC(O)C(O)C1O)c1ccco1 (configuration not stated)
inactive: [4] 99 % of control and 102 % of control | [5] 100 % of control and 102 % of control | [6] 104 % of control and 106 % of control | dose: 400.0 mg/kg/injection, schedule: Q01DX005 (ip), vehicle: Klucel (hydroxypropylcellulose) (HPC) 98 % of control

CCCCCCCCCCCCCCCCS(=O)(=O)c1ccc(NN)cc1
inactive: dose: 100.0 mg/kg/injection, schedule: Q01DX009 (ip), vehicle: Klucel (hydroxypropylcellulose) (HPC) 90 % of control | dose: 200.0 mg/kg/injection, schedule: Q01DX009 (ip), vehicle: Klucel (hydroxypropylcellulose) (HPC) 89 % of control | dose: 400.0 mg/kg/injection, schedule: Q01DX009 (ip), vehicle: Klucel (hydroxypropylcellulose) (HPC) 87 % of control

O=C1C2CCCN2C(=S)N1c1ccc([N+](=O)[O-])cc1 (configuration not stated)
inactive: [4] 100 % of control | [5] 100 % of control | [6] 99 % of control

CC(C)CC(NC(=O)OC(C)(C)C)C(=O)CBr (configuration not stated)
inactive: dose: 12.5 mg/kg/injection, schedule: Q01DX001 (ip), vehicle: saline with Tween-80 105 % of control | [7] 105 % of control | [8] 96 % of control

O=C1Nc2ccccc2/C1=N/N1C(=O)c2ccccc2C1=O
inactive: [4] 91 % of control | [5] 92 % of control | [6] 97 % of control

CC1(C)CC2(CC(C)(C)NC(=O)N2)NC(=O)N1
inactive: [4] 105 % of control | [5] 92 % of control | [6] 100 % of control

CN(CCOc1ccccc1)Cc1ccccc1
inactive: dose: 60.0 mg/kg/injection, schedule: Q01DX005 (ip), vehicle: Klucel (hydroxypropylcellulose) (HPC) 97 % of control | dose: 120.0 mg/kg/injection, schedule: Q01DX005 (ip), vehicle: Klucel (hydroxypropylcellulose) (HPC) 104 % of control | dose: 240.0 mg/kg/injection, schedule: Q01DX005 (ip), vehicle: Klucel (hydroxypropylcellulose) (HPC) 105 % of control

CC1C2=C(C(=O)N1Cc1ccccc1)C(C1OC(COC(=O)c3ccccc3)C(OC(=O)c3ccccc3)C1OC(=O)c1ccccc1)C(=O)N(C)C2=O (configuration not stated)
inactive: dose: 39.0 mg/kg/injection, schedule: Q01DX009 (ip), vehicle: Klucel (hydroxypropylcellulose) (HPC) 97 % of control | dose: 78.0 mg/kg/injection, schedule: Q01DX009 (ip), vehicle: Klucel (hydroxypropylcellulose) (HPC) 99 % of control | dose: 156.0 mg/kg/injection, schedule: Q01DX009 (ip), vehicle: Klucel (hydroxypropylcellulose) (HPC) 95 % of control

CCN(CC)Cc1c(C)nc2cc(N(C)C)ccc2c1Cl
inactive: [9] 103 % of control

Oc1ccc2ccccc2c1C=NCCS
inactive: [9] 87 % of control | dose: 120.0 mg/kg/injection, schedule: Q01DX005 (ip), vehicle: saline with Tween-80 87 % of control

CN1CN(c2ccc([N+](=O)[O-])cc2)N=N1
inactive: [4] 95 % of control | [5] 97 % of control | [6] 94 % of control

NC(Cc1ccc(OC(c2ccccc2)c2ccccc2)cc1)C(=O)O (configuration not stated)
inactive: [10] 116 % of control | [11] 98 % of control | [12] 88 % of control | [13] 95 % of control | [14] 97 % of control

COC(=O)C1(CC(=O)c2ccc(N3CCN(c4ccc(C(=O)CC5(C(=O)OC)NC(=S)NC(=O)C5C#N)cc4)CC3)cc2)NC(=S)NC(=O)C1C#N (configuration not stated)
inactive: dose: 7.5 mg/kg/injection, schedule: Q01DX005 (ip), vehicle: Klucel (hydroxypropylcellulose) (HPC) 96 % of control | dose: 15.0 mg/kg/injection, schedule: Q01DX005 (ip), vehicle: Klucel (hydroxypropylcellulose) (HPC) 99 % of control | dose: 30.0 mg/kg/injection, schedule: Q01DX005 (ip), vehicle: Klucel (hydroxypropylcellulose) (HPC) 98 % of control and 92 % of control

O=c1[nH]nc(NCCCCO)c2ccccc12
inactive: [12] 95 % of control | [13] 95 % of control | [14] 91 % of control

CSc1nc(SC)c2nc(SC)n(-c3ccccc3)c2n1
inactive: dose: 3.13 mg/kg/injection, schedule: Q01DX009 (ip), vehicle: saline with Tween-80 102 % of control | dose: 6.25 mg/kg/injection, schedule: Q01DX009 (ip), vehicle: saline with Tween-80 104 % of control | [10] 101 % of control | [11] 97 % of control

CC1C(=O)c2cc3c(cc2CCN(C)Cc2c1ccc1c2OCO1)OCO3 (configuration not stated)
inactive: dose: 5.0 mg/kg/injection, schedule: Q01DX009 (ip), vehicle: saline with Tween-80 100 % of control | dose: 10.0 mg/kg/injection, schedule: Q01DX009 (ip), vehicle: saline with Tween-80 99 % of control | [10] 90 % of control | dose: 25.0 mg/kg/injection, schedule: Q04DX003 (ip), vehicle: saline with Tween-80 109 % of control | [12] 90 % of control | [15] 104 % of control

O=C(CC(O)CCc1ccc(O)c(O)c1)O[C@H]1Cc2c(O)cc(O)cc2O[C@H]1c1ccc(O)c(O)c1 (some centres not stated)
inactive: dose: 20.0 mg/kg/injection, schedule: Q01DX005 (ip), vehicle: saline with Tween-80 105 % of control | dose: 40.0 mg/kg/injection, schedule: Q01DX005 (ip), vehicle: saline with Tween-80 105 % of control | dose: 80.0 mg/kg/injection, schedule: Q01DX005 (ip), vehicle: saline with Tween-80 100 % of control

NC(N)=NNC(O)(C(=O)O)C(=O)O
inactive: [4] 100 % of control | [5] 96 % of control | [6] 96 % of control

CC1(C)CSCC(C)(C)C2(C=CC=CC=N2)C1=O (configuration not stated)
inactive: [4] 107 % of control | [5] 115 % of control

N#CCCS(=O)(=O)c1ccc(Cl)cc1
inactive: dose: 50.0 mg/kg/injection, schedule: Q01DX009 (ip), vehicle: saline 99 % of control | dose: 100.0 mg/kg/injection, schedule: Q01DX009 (ip), vehicle: saline 100 % of control | dose: 200.0 mg/kg/injection, schedule: Q01DX009 (ip), vehicle: saline 100 % of control

CN(C)C1=NC(NC(C)(C)C)(N(C)C)OC(N(C)C)=N1 (configuration not stated)
inactive: dose: 25.0 mg/kg/injection, schedule: Q01DX005 (ip), vehicle: saline 100 % of control | dose: 50.0 mg/kg/injection, schedule: Q01DX005 (ip), vehicle: saline 100 % of control | dose: 100.0 mg/kg/injection, schedule: Q01DX005 (ip), vehicle: saline 104 % of control

CC1(C)OC2OC(CN=NNc3ccc([N+](=O)[O-])cc3)C3OC(C)(C)OC3C2O1 (configuration not stated)
inactive: dose: 60.0 mg/kg/injection, schedule: Q01DX005 (ip), vehicle: Klucel + Tween-80 100 % of control | dose: 120.0 mg/kg/injection, schedule: Q01DX005 (ip), vehicle: Klucel + Tween-80 91 % of control | dose: 240.0 mg/kg/injection, schedule: Q01DX005 (ip), vehicle: Klucel + Tween-80 87 % of control

COC(=O)C1([Se]c2ccccc2)CCN2CCC(OCc3ccccc3[N+](=O)[O-])C21 (configuration not stated)
inactive: [7] 90 % of control | [8] 105 % of control | dose: 100.0 mg/kg/injection, schedule: Q01DX001 (ip), vehicle: saline with Tween-80 108 % of control and 89 % of control

Cc1ccc(S(=O)(=O)N/N=C/c2cccc([N+](=O)[O-])c2O)cc1
inactive: [1] 101 % of control | [2] 104 % of control | [3] 93 % of control

CC(=O)OCC(=O)[C@@]1(O)CC[C@H]2[C@@H]3C[C@H](C)C4=CC(=O)C=C[C@]4(C)[C@@]3(F)[C@@H](O)C[C@@]21C
inactive: [15] 109 % of control | [13] 100 % of control | dose: 100.0 mg/kg/injection, schedule: Q04DX003 (ip), vehicle: saline with Tween-80 118 % of control | [14] 90 % of control | dose: 200.0 mg/kg/injection, schedule: Q04DX003 (ip), vehicle: saline with Tween-80 118 % of control
